The results in this text go back to article PMC4422956 (EJNMMI Research, 2014).

In experiment [1] the target is T1, human DA D2L receptor (Homo sapiens, UniProt P14416).
T1 construct: gene DRD2; full-length D2L stably expressed in HEK 293 cells
Briefly: cAMP accumulation, HEK […] cells. Format: cell-based. Conditions: read-out: cAMP / Potency (converted). (Cyclic AMP is a second messenger, typically raised through Gs and lowered through Gi signalling.)

Experiment [2] deals with T1, human DA D2L receptor. Briefly: 3H-spiperone radioligand binding, membranes. The conditions noted are these: read-out: pK i D 2 -high (converted). The text has this: 3H-spiperone radioligand binding, membranes on human DA D2L receptor

T1 sequence (P14416 whole entry): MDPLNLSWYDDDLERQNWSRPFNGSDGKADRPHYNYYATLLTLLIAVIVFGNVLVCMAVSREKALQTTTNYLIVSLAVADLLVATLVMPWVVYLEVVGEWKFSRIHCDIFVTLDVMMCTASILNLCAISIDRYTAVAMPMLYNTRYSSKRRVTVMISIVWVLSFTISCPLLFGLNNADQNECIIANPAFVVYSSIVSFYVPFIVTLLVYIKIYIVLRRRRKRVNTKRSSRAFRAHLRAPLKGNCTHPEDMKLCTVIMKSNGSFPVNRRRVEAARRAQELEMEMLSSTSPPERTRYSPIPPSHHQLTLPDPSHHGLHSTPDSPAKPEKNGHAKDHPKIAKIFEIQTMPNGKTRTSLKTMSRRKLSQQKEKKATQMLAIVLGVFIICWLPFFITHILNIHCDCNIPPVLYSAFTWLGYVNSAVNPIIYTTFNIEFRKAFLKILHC

`CCN1CCC[C@H]1CNC(=O)c1c(OC)ccc(I)c1O` [IBZM]: the EC50 on human DA D2L receptor [1] was 0.832 nM. On human DA D2L receptor [2], the Ki is 102 nM.
